Entries after “also recorded” stand apart in the source; their conditions may differ.
How the values were obtained:
[1] = target: transient receptor potential (TRP) ankyrin 1-type (TRPA1) channels (Rattus norvegicus, UniProt Q6RI86); details: De Petrocellis et al., 2008; 2011; cited from earlier work
[2] = test system: monoacylglycerol lipase (MAGL); details: De Petrocellis et al., 2011; cited from earlier work
[3] = test system: Poly(I:C)-induced ARDS in C57BL/6 mice; test: Poly(I:C)-induced ARDS mouse model, CBC treatment
Experimental: Animal model and application of Poly(I:C) and CBC: Wild-type (WT) C57BL/6 mice (male, 12 weeks old) were divided into 3 experimental groups of sham, control and treatment (n=5). […] All mice were anesthetized with isoflurane. Sham group received PBS while control and treatment groups were administered by Poly(I:C) (Sigma Aldrich, USA) (100 μg in 50 μl sterile PBS) intranasally (I/N) three once-daily doses. CBC (isolate THC free) was delivered intraperitoneally (5mg/kg), first dose two hours after the second Poly(I:C) treatment and every other day interval, total of 3 doses. Sham and control groups received PBS only. All mice were sacrificed at 8 days after the first Poly(I:C) application. Blood and lung tissues were harvested and subjected to the further analysis.
Measurement of vital signs: Vital signs including temperature, Blood O2 saturation were measured prior and post of any treatment. Central body temperature was measured rectally and blood oxygen saturation was determined using portable pulse oximetry through carotid arteries.
Histology and immunohistochemistry: Left lobes of lung tissue were fixed in 10% neutral buffered formalin. Samples were processed by routine methods, oriented so as to provide coronal sections and 5 micron mid-coronal sections cut and stained with hematoxylin & eosin, Trichrome for histology. As for inflammatory indices, immunohistochemistry was performed by incubating the samples with specific antibodies against murine IL-6 (Cat #554402, BD BioSciences Pharmingen) and Neutrophils (Cat #G102, Leinco Technologies). Preparations were counterstained with hematoxylin (catalog no. 7221; Richard-Allan Scientific, Kalamazoo, MI, USA) and mounted in Faramount (catalog no. S3025, DAKO), analyzed and imaged by brightfield microscopy.
Analytical Flow Cytometry: Single cell suspension was prepared from lung tissues. Briefly, tissue samples were sieved through a 100 μM cell strainer (BD Biosciences, San Diego, CA), followed by centrifugation (1,000 rpm, 10 min) to prepare single-cell suspensions. All cells were then stained with fluorescent antibodies to quantify neutrophils, macrophages, lymphocytes and cytokine expression. Briefly, all cells were stained with anti-Gr1 (Neutrophils), Anti-F4/80 (Macrophages), and anti-CD3/CD4/CD8 (Lymphocytes, all from Biolegend USA). Then cells were fixed and permeabilized and stained intracellularly for cytokines including IL-6, TNFα, IL-2, and IFNγ (Proinflammatory cytokines). All samples were run through a 4-Laser LSR II flow cytometer. Cells were gated based on forward and side scatter properties and on marker combinations to select cells of interest. All acquired flow cytometry data were analyzed using the FlowJo V10.
Statistical analysis: Graphs and summary statistics were also used to assess the results. All statistical tests were 2-sided. Except for where noted, all p-values presented are unadjusted for multiple comparisons.

[4] = test system: endocannabinoid cellular reuptake; details: Ligresti et al., 2006; cited from earlier work
[5] = test system: Poly(I:C)-induced ARDS in C57BL/6 mice; test: Poly(I:C)-induced ARDS mouse model, CBD treatment
Experimental: Animal model and application of Poly(I:C) and CBC: Adult (12 weeks) male C57B1/6 mice were block randomized into one of three experimental groups (n=10 mice/group) by a blinded investigator. Group I received intranasal, once daily administration of sterile saline for three consecutive days to serve as a control. Group II received intranasal, once daily administration of Poly I:C (100 μg in 50 μL in sterile saline) for three consecutive days to mimic ARDS. Group III received intranasal, once daily administration of Poly I:C (100 μg in 50 μL in sterile saline) for three consecutive days, with intraperitoneal administration of CBD (isolate CBD, THC-free, 5 mg/kg body weight, Canabidiol Ltd, Dublin, Ireland), first dose two hours after the second Poly(I:C) treatment and every other day for a total of 3 doses to the treatment group. Blood oxygen saturation was quantified via the carotid arteries using a portable pulse oximeter at study initiation (day 0) and once daily for the duration of the study. Mice were euthanized at study day nine. Blood and lung tissue were harvested and subjected to flow cytometry, immunofluorescence and histological analysis, as detailed above. All flow cytometry data were analysed using the FlowJo V10 software while immunofluorescence, and histological preparations were analysed and imaged by fluorescence and bright field microscopy. As for additional histological evaluation, Masson's Trichrome staining was used for the detection of collagen fibres in lung on formalin-fixed, paraffin-embedded sections. The collagen fibres stained in blue and the background is stained red. Sections were examined and analysed using bright field microscopy imaging.

[6] = blood, vs untreated counterparts, p<0.01
[7] = lung tissue, PIC+CBC vs sham or PIC
[8] = lung, vs untreated counterparts, p<0.01
[9] = lung tissue, CBD after Poly(I:C)
[10] = whole blood, CBD 5 mg/kg intraperitoneal, 3 doses, after Poly(I:C)

transient receptor potential (TRP) ankyrin 1-type (TRPA1) channels, sequence (Q6RI86 whole entry): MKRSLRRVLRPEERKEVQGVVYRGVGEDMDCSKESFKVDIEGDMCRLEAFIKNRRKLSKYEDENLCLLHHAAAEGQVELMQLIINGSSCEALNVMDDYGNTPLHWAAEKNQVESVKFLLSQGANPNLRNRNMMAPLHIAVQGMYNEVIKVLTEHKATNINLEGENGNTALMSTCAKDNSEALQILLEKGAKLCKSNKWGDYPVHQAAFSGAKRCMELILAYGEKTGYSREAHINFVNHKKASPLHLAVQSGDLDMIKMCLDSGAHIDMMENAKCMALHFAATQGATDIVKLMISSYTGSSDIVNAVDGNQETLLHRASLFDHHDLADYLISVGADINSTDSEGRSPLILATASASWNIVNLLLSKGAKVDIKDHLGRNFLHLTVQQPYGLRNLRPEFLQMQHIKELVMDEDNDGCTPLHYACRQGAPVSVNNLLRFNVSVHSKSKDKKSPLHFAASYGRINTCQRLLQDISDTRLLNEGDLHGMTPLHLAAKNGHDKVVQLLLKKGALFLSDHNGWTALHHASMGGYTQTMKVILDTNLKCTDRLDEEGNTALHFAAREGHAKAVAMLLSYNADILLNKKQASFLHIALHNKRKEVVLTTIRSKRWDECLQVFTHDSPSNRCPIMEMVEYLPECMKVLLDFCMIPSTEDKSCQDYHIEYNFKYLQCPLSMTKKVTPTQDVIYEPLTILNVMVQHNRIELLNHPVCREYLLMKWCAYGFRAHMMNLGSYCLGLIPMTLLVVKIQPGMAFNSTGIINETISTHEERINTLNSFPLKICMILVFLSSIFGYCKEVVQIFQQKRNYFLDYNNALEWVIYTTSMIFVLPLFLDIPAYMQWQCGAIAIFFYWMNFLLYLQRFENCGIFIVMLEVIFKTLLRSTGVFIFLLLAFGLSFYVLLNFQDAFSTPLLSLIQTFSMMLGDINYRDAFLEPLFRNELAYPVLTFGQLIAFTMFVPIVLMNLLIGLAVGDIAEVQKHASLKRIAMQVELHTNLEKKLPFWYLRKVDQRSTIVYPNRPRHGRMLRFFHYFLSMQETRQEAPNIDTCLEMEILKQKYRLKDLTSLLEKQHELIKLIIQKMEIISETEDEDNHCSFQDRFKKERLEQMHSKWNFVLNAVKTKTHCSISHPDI

CCCCCc1cc(O)c2c(c1)OC(C)(CCC=C(C)C)C=C2 (stereo not shown) [CBC, cannabichromene]
activation of TRPA1 channels [1]: potent activator | inhibition of monoacylglycerol lipase (MAGL) [2]: weak inhibitor | increase in blood oxygen saturation ([3]; Poly(I:C) mice, CBC treated vs untreated PIC): 8% | blood oxygen saturation after CBC treatment ([3]; Poly(I:C) mice, pulse oximetry, untreated PIC group 90%): 98% | IFNγ expression level in blood (flow cytometry) [3, 6]: curtailed the expression levels | IL-6 expression level in blood (flow cytometry) [3, 6]: curtailed the expression levels | IL-17 expression level in blood (flow cytometry) [3, 6]: curtailed the expression levels | lung histology (H&E, Masson's trichrome): structural damage, hypertrophy and fibrosis ([3]; lung tissue, PIC+CBC vs PIC): reduced hypertrophy and fibrosis | TRPA1 expression in lung tissue (immunohistochemistry) [3, 7]: increased the level of expression | TRPV1 expression in lung tissue (immunohistochemistry) [3, 7]: increased the level of expression | IFNγ expression level in lung (flow cytometry) [3, 8]: curtailed the expression levels | IL-6 expression level in lung (flow cytometry) [3, 8]: curtailed the expression levels | IL-17 expression level in lung (flow cytometry) [3, 8]: curtailed the expression levels | inhibition of endocannabinoid cellular reuptake [4]: inhibitor of endocannabinoid cellular reuptake

C=C(C)[C@@H]1CCC(C)=C[C@H]1c1c(O)cc(CCCCC)cc1O [CBD, cannabidiol]
apelin expression in lung tissue (immunofluorescence) [5, 9]: increased apelin expression towards control levels; also recorded: normalized the Apelin expression | lung histology (Masson's trichrome): inflammatory infiltrate, fibrosis, hypertrophy, pulmonary oedema [5, 9]: completely or partially abolished; also recorded: improved the structure towards the normal architecture | apelin expression in blood (flow cytometry) [5, 10]: enhanced expression of apelin; also recorded: normalized the expression level of apelin; also recorded: attenuated these effects | blood T cells (flow cytometry) [5, 10]: returned decreased T cells and increased neutrophils towards the normal level | blood neutrophils (flow cytometry) [5, 10]: returned decreased T cells and increased neutrophils towards the normal level

From patent publication US20260097051A1, “CANNA[…] A T[…] FOR COVID-19” (AUGUSTA UNIVERSITY RESEARCH INSTITUTE, INC., priority 2021, published 2026)
